Test results reported in patent publication US8802866B2, “Pyridinylimidazolone derivatives for the inhibition of PI3 kinases” (Merck Patent GmbH, priority 2009, dated 2014).

How the values were obtained:
[1] = biological target: DNA-PK protein complex (Homo sapiens, UniProt P78527); assay: Biochemical DNA-PK assay (FlashPlate)
In short: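 Streptavidin-coated FlashPlate radiometric kinase assay, stopped with 200 mM EDTA, then wells washed with 0.9% NaCl and bound radioactivity counted. Blank (non-specific reaction) defined with a proprietary kinase inhibitor at 10 μM.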

[2] = biological target: PI3Kalpha (Homo sapiens, UniProt P42336); assay: Biochemical PI3Kalpha assay (neomycin SPA, lipid phosphorylation); details: human recombinant GST-PI3K
In short: (§1)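 Recombinant PI3K incubated with lipid substrate and radioactive ATP for 120 min at room temperature with gentle stirring, then stopped with neomycin-coated PVT-SPA beads, ATP 60 mM and EDTA 6.2 mM in PBS. After 60 min bead binding and centrifugation, radioactive Ptdlns(3)P counted by scintillation.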

[3] = biological target: recombinant PI3Kalpha (shortened form of the catalytic subunit) (Homo sapiens, UniProt P42336); assay: BIACORE PI3K binding assay (SPR); details: 25° C.
In short: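 Contact time was 180 s and dissociation 240 s, in HEPES pH 7.40 buffer with 2% DMSO. Solvent-corrected, double-referenced data were fitted to a 1:1 model with mass transport.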

[4] = biological target: T1, mTOR (Homo sapiens, UniProt P42345); assay: Biochemical mTOR assay (Millipore mTOR assay kit)
T1 construct: purchased Millipore 14-770
Experimental: The biochemical mTOR assay was carried out by the method described in the Millipore mTOR assay kit (catalogue number 14-770).

[5] = tested on: PI3K-dependent phosphorylation of PKB at Serin 473 in PC3 cells; assay: Cellular PI3K assay (P-S473-PKB Luminex assay in PC3 cells); assay type: cell-based; details: Homo sapiens, PC-3, 0.5 h; PC3 cells, 30 min, serum-free, P-S473-PKB; read-out: IC50 (cell)
In short: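 PC3 cells were exposed for 30 min under serum-free conditions to 7 concentrations of compound, then lysed. Lysates were captured overnight at 4°C on anti-total-PKB Luminex beads and detected with P-S473-PKB antibody plus PE-labelled secondary.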

[6] = biological target: PI3Kbeta (Homo sapiens, UniProt P42338); assay: Biochemical PI3Kbeta assay (neomycin SPA, lipid phosphorylation); details: human recombinant GST-PI3K
In short: as §1

[7] = biological target: CK2 protein kinase; details: cited from earlier work

T1 sequence (P42345 1362-2549 limits assumed): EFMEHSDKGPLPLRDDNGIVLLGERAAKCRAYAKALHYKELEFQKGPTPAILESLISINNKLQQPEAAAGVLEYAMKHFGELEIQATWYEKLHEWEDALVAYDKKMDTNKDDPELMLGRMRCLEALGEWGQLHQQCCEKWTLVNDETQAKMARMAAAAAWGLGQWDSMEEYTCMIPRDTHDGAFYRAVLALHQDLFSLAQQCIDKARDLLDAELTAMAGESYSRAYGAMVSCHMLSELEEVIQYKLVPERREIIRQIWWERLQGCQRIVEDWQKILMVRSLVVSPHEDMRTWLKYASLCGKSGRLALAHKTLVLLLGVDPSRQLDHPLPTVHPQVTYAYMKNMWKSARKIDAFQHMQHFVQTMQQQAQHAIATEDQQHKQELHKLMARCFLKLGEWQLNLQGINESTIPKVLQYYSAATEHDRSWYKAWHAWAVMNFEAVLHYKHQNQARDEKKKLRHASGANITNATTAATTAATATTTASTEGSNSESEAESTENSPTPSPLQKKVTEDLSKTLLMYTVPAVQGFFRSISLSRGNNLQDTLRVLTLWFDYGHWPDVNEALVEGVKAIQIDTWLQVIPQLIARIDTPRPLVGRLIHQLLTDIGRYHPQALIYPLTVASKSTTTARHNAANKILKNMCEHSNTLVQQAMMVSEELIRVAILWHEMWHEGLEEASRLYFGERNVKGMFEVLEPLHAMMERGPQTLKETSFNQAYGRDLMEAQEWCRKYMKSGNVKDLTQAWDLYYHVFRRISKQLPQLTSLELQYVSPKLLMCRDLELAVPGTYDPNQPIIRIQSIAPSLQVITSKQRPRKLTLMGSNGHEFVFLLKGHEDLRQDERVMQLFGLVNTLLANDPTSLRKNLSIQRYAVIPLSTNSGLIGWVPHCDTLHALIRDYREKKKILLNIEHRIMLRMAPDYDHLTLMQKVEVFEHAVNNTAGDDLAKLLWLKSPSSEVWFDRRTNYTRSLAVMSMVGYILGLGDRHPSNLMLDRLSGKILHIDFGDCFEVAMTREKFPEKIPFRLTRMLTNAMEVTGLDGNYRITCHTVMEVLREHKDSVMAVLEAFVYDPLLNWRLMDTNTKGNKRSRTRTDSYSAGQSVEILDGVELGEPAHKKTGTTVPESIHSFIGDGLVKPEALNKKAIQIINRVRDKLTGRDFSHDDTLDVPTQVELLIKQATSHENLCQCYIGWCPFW
Chain of PI3Kalpha (P42336 whole entry): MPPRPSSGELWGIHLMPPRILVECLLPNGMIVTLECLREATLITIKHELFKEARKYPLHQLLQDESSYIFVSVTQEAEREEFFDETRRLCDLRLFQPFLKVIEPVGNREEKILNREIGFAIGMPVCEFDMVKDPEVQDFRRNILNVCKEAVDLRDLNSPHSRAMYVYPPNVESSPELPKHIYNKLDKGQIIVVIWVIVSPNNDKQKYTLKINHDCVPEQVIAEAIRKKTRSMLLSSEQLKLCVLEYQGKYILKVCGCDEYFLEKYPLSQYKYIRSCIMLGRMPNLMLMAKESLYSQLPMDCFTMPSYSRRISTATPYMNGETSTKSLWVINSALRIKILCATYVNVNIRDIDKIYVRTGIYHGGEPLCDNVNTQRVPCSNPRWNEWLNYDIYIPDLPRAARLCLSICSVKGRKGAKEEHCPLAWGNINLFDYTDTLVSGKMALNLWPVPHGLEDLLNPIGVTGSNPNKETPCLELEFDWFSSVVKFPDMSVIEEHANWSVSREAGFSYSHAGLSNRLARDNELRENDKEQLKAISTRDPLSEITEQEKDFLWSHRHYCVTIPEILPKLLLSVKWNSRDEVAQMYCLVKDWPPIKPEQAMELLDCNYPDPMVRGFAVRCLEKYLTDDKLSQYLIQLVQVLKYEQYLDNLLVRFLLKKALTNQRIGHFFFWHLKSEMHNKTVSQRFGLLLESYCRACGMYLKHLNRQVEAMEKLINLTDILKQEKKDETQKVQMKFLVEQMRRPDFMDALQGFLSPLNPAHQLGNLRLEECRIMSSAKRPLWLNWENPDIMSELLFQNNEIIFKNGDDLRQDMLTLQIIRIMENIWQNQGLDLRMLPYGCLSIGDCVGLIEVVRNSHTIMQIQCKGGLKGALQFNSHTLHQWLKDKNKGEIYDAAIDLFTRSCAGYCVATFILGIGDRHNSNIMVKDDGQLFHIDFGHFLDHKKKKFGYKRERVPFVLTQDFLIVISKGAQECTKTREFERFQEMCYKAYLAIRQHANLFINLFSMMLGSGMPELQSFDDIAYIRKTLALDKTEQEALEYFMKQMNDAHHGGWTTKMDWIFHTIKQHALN
Chain of PI3Kalpha (P27986 whole entry partner): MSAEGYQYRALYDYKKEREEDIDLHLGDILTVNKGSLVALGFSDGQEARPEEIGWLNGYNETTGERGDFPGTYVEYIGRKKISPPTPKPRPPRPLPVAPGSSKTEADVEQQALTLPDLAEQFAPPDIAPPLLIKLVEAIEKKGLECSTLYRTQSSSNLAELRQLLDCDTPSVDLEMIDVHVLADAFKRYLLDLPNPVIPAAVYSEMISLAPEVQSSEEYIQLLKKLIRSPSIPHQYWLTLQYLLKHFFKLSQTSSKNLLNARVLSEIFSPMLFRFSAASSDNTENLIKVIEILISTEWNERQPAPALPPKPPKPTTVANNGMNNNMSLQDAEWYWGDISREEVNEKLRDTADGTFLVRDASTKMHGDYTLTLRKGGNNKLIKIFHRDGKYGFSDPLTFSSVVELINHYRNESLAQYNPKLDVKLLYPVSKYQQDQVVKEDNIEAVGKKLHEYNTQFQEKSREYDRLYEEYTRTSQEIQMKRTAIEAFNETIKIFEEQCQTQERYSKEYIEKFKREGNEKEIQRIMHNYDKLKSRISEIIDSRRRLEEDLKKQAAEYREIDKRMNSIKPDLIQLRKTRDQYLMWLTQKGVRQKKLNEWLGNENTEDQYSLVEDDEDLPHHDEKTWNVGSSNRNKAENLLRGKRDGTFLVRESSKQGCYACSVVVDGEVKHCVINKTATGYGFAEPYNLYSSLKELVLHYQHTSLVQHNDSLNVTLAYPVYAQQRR
Chain of recombinant PI3Kalpha (shortened form of the catalytic subunit) (P42336 151-1068 limits assumed): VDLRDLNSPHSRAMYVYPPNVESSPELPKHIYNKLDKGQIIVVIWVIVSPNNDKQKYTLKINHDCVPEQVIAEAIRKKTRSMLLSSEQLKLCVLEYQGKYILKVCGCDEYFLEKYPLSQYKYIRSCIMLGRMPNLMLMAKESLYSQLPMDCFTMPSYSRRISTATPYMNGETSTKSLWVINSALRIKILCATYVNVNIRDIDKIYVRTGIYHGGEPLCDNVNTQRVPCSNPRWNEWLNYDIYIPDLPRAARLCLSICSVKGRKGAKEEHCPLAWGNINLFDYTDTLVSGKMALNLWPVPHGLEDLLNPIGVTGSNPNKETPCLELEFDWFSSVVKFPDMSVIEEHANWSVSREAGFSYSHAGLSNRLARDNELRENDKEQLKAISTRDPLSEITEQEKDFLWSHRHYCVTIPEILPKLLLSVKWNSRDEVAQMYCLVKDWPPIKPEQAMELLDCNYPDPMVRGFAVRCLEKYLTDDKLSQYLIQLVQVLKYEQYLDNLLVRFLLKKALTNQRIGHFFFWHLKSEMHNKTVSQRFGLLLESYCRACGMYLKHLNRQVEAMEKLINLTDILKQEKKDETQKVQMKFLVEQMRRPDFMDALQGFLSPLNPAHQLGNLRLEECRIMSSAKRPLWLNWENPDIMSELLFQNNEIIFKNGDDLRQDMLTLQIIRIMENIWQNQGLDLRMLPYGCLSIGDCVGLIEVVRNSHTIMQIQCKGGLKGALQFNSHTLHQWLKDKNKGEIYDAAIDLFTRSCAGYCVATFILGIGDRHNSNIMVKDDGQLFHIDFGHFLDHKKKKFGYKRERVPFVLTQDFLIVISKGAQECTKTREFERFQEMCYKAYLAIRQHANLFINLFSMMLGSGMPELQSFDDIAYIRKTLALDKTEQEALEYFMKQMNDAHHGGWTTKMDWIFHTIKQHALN
Chain of PI3Kbeta (P42338 whole entry): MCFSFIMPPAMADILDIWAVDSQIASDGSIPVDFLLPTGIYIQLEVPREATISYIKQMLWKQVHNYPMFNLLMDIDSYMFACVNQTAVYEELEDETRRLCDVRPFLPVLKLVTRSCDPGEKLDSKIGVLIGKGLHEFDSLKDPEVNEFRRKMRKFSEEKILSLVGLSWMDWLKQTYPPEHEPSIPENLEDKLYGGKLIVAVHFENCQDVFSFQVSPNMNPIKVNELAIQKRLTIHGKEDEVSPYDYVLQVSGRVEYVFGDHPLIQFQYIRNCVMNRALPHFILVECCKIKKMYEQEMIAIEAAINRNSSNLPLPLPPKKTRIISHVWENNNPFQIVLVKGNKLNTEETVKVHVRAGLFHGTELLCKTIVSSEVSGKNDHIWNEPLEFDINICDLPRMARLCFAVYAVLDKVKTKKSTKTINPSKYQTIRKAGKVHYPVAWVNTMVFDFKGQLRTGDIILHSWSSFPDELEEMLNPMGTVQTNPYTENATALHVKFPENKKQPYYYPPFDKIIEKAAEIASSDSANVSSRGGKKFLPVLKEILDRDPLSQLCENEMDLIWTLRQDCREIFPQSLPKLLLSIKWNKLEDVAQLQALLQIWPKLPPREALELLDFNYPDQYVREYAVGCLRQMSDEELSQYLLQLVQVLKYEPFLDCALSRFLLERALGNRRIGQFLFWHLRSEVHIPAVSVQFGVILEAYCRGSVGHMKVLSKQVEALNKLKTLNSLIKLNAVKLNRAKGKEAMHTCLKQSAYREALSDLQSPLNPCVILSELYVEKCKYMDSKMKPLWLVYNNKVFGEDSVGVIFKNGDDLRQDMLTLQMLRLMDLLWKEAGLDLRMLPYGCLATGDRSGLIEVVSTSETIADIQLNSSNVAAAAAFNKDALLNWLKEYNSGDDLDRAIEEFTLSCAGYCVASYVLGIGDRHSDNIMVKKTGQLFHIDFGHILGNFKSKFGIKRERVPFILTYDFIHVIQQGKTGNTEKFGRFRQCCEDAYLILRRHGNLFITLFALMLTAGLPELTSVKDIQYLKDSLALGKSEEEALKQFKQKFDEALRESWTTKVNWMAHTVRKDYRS
Chain of PI3Kbeta (P27986 whole entry partner): as the sequence (P27986 whole entry partner) above

Compound	IC50 [1] [nM]	IC50 [2] [nM]	Kd [3] [nM]	IC50 [4] [nM]	IC50 [5] [nM]	IC50 [6] [nM]	melting point	IC50 [7] [nM]
Cn1cc(-c2cc(-c3ccsc3)ccn2)n(-c2ccc(C(C)(C)C#N)cc2)c1=O [Example A26, 2-Methyl-2-{4-[3-methyl-2-oxo-5-(4-thiophen-3-ylpyridin-2-yl)-2,3-dihydro-imidazol-1-yl]phenyl}propionitrile]	0.1 to 100	100 to 10000	100 to 10000	100 to 10000	> 10000	> 10000	209 °C	
N#CCc1ccc(-n2c(-c3cc(-c4cnc5[nH]ccc5c4)ccn3)c[nH]c2=O)cc1 [Example A31, (4-{2-oxo-5-[4-(1H-pyrrolo[2,3-b]pyridin-5-yl)pyridin-2-yl]-2,3-dihydroimidazol-1-yl}phenyl)acetonitrile]	0.1 to 100	100 to 10000	0.1 to 100	100 to 10000	100 to 10000	100 to 10000	> 410 °C (dec.)	
CN1CCN(c2ccc(-n3c(-c4cc(-c5cnc6[nH]ccc6c5)ccn4)cn(C)c3=O)cc2C(F)(F)F)CC1 [Example A49, 1-Methyl-3-[4-(4-methylpiperazin-1-yl)-3-trifluoromethylphenyl]-4-[4-(1H-pyrrolo[2,3-b]pyridin-5-yl)pyridin-2-yl]-1,3-dihydroimidazol-2-one]	0.1 to 100	100 to 10000	0.1 to 100	100 to 10000	100 to 10000	100 to 10000	241 °C	
Cn1cc(-c2cc(-c3cnc4[nH]ccc4c3)ccn2)n(-c2cccc(C#N)c2)c1=O [Example A55, 3-{3-Methyl-2-oxo-5-[4-(1H-pyrrolo[2,3-b]pyridin-5-yl)pyridin-2-yl]-2,3-dihydro-imidazol-1-yl}benzonitrile]	0.1 to 100	100 to 10000	100 to 10000	100 to 10000	100 to 10000	100 to 10000	265 °C	
O=c1cc(N2CCOCC2)oc2c(-c3ccccc3)cccc12 [LY294002]								5000 to 10000

Continued, in another order:

IC50 [1] [nM]	IC50 [2] [nM]	Kd [3] [nM]	IC50 [4] [nM]	IC50 [5] [nM]	IC50 [6] [nM]	melting point	Compound	IC50 [7] [nM]
0.1 to 100	> 10000	100 to 10000	100 to 10000	> 10000	> 10000	219 °C	COc1ccc(-c2ccnc(-c3cn(C)c(=O)n3-c3ccc(C(C)(C)C#N)cc3)c2)cc1 [Example A13, 2-(4-{5-[4-(4-Methoxyphenyl)pyridin-2-yl]-3-methyl-2-oxo-2,3-dihydroimidazol-1-yl}phenyl)-2-methylpropionitrile]	
0.1 to 100	100 to 10000	0.1 to 100	100 to 10000	> 10000	100 to 10000	259 °C	Cn1cc(-c2cc(-c3cnc4ccccc4c3)ccn2)n(-c2ccc(C(C)(C)C(N)=O)cc2)c1=O [Example A21, 2-{-4-[3-Methyl-2-oxo-5-(4-quinolin-3-ylpyridin-2-yl)-2,3-dihydroimidazol-1-yl]-phenyl}isobutyramide]	
0.1 to 100	0.1 to 100	0.1 to 100	0.1 to 100	100 to 10000	100 to 10000	252 °C	Cn1cc(-c2cc(-c3cnc4[nH]ccc4c3)ccn2)n(-c2ccc(CC#N)cc2)c1=O [Example A32, (4-{3-Methyl-2-oxo-5-[4-(1H-pyrrolo[2,3-b]pyridin-5-yl)pyridin-2-yl]-2,3-dihydroimidazol-1-yl}phenyl)acetonitrile]	
0.1 to 100	100 to 10000	100 to 10000	100 to 10000	> 10000	> 10000	158 °C	CCOC(=O)C(C)(C)c1ccc(-n2c(-c3cc(-c4cnc5ccccc5c4)ccn3)cn(C)c2=O)cc1 [Example A36, Ethyl 2-methyl-2-{4-[3-methyl-2-oxo-5-(4-quinolin-3-ylpyridin-2-yl)-2,3-dihydro-imidazol-1-yl]phenyl}propionate]	
0.1 to 100	0.1 to 100	0.1 to 100	100 to 10000	100 to 10000	100 to 10000	294 °C	Cn1cc(-c2cc(-c3cnc4[nH]ncc4c3)ccn2)n(-c2ccc(C(C)(C)C#N)cc2)c1=O [Example A41, 2-Methyl-2-(4-{3-methyl-2-oxo-5-[4-(1H-pyrazolo[3,4-b]pyridin-5-yl)pyridin-2-yl]-2,3-dihydroimidazol-1-yl}phenyl)propionitrile]	
0.1 to 100	0.1 to 100	0.1 to 100	100 to 10000	100 to 10000	100 to 10000	247 °C	Cn1cc(-c2cc(-c3cnc4c(c3)CCN4)ccn2)n(-c2ccc(C(C)(C)C#N)cc2)c1=O [Example A43, 2-(4-{5-[4-(2,3-Dihydro-1H-pyrrolo[2,3-b]pyridin-5-yl)pyridin-2-yl]-3-methyl-2-oxo-2,3-dihydroimidazol-1-yl}phenyl)-2-methylpropionitrile]	
0.1 to 100	100 to 10000	0.1 to 100	100 to 10000	100 to 10000	100 to 10000	263 °C	Cn1cc(-c2cc(-c3cnc4c(c3)CC(=O)N4)ccn2)n(-c2ccc(C(C)(C)C#N)cc2)c1=O [Example A44, 2-Methyl-2-(4-{3-methyl-2-oxo-5-[4-(2-oxo-2,3-dihydro-1H-pyrrolo[2,3-b]pyridin-5-yl)pyridin-2-yl]-2,3-dihydroimidazol-1-yl}phenyl)propionitrile]	
0.1 to 100	100 to 10000	0.1 to 100	100 to 10000	100 to 10000	100 to 10000	165 °C	Cn1cc(-c2cc(-c3ccc4[nH]ncc4c3)ccn2)n(-c2ccc(C(C)(C)C#N)cc2)c1=O [Example A52, 2-(4-{5-[4-(1H-Indazol-5-yl)pyridin-2-yl]-3-methyl-2-oxo-2,3-dihydroimidazol-1-yl}phenyl)-2-methylpropionitrile]	
